{"source": "patent US20110251135A1", "about": "“INHIBITORS OF PERITONEAL SEEDING OF CANCER CELLS” (University of Utah Research Foundation, priority 2008, published 2011)", "format_in_all_cases": "cell-based, human", "key": {"[1]": {"tested_on": "transiently suspended HT-29 cells", "assay": "Apoptosis of transiently suspended cells during readhesion (annexin V assay)", "experimental": "HT-29 cells that were either transiently suspended with trypsin-EDTA or adherent for three days, were treated at time zero with DMSO or 10-100 μM BAY 11-7085. The percent of apoptotic cells was determined using the annexin V flow cytometry assay and graphed versus the dose of BAY 11-7085. FIG. 4B are photographs showing DLD-1, FIG. 4C are photographs showing HCT-116, and FIG. 4D are photographs showing HT-29 cells that were transiently suspended in trypsin-EDTA and allowed to readhere to glass coverslips for 1-24 hours. The cells were fixed and immunostained with an NF-κB p65 subunit monoclonal antibody.\nThe transiently suspended cells were lysed and allowed to bind to DNA oligonucleotides, containing the NF-κB consensus binding site, that were immobilized to 96-well plates. NF-κB protein bound to the oligonucleotides was detected by an antibody to the p65 subunit that only recognized p65 that is bound to DNA. The positive control was HeLa cells that were stimulated with TNFα. A control was performed using excess free NF-κB oligonucleotides (Competitor). […] NF-κB binding activity was determined by the TransAM assay as in FIG. 5A. […] The data shown represent typical results of three separate experiments. […] An immunoblot for COX-2 was performed.\nThe percentage of apoptotic cells was determined using the annexin V assay. The data points represent the averages of three experiments; bars, +−.SE. E. DLD-1 and F. HT-29 cells were transduced with an adenovirus containing the IκB super-repressor construct. After 3 days, the cells were transiently suspended and allowed to readhere in the presence of subapoptotic concentrations of BAY 11-7085 or DMSO (vehicle) for 8 hours. The data are expressed as fractions of cells surviving compared with the controls (no adenovirus) and were quantitatively determined by staining the remaining adherent cells with crystal violet.\nSingle cell suspensions were plated at 100,000 cells per well in 24-well plates in media containing DMSO, BAY 11-7082, BAY 11-7085, or MG-132 for 8-24 hours in an incubator. Alternatively, DMSO, BAY 11-7082, BAY 11-7085, or MG-132 were added to cells that were confluent and adherent for several days. The nonadherent cells were aspirated off with the media and spun for 3 minutes at 2,000 rpm in 15 mL polypropylene tubes. The adherent cells were washed twice with PBS, dispersed in trypsin, and spun down for 3 minutes at 2,000 rpm in 15 mL polypropylene tubes. The nonadherent and adherent cells were resuspended in 1× binding buffer (10 mM HEPES/NaOH, pH 7.4, 140 mM NaCl, and 2.5 mM CaCl2) to a final concentration of 10^6 cells/mL. 100 μL of the cell solution were transferred to a 5 mL culture tube and incubated with 5 μL of annexin V-FITC-conjugated monoclonal antibody (Pharmingen) and 10 μl, of propidium iodide (from a 50 μg/mL stock solution made in PBS) in the dark at 25° C. for 15 minutes. 400 μL of binding buffer was added to each tube and the cells were analyzed by flow cytometry immediately. The percent of apoptosis was determined as the percent of annexin V-positive, propidium iodide-negative cells of the total cells counted.\nVarious concentrations of BAY 11-7085 were added to HT-29 cells that were transiently suspended in trypsin-PBS for approximately 15 minutes before replating. The transiently suspended cells were quickly allowed to readhere in order to prevent anoikis. Alternatively, BAY 11-7085 was added to adherent HT-29 cell monolayers."}, "c-IAP-1": {"tested_on": "c-IAP-1", "assay": "Immunoblot of anti-apoptotic proteins in HT-29 cells", "conditions": "transiently suspended or adherent HT-29; 20 μM for 8 hours", "experimental": "(§1) The data points represent the means of triplicate experiments and the error bars the standard errors of the means. […] The percent of apoptotic cells was then determined by the annexin V assay. […] The results shown are typical of two separate experiments. […] Immunoblots were performed for c-IAP-2, TRAF-1, TRAF-2, and FLIP. All lanes contain equal total protein.\n(§2) The cells were washed twice in ice cold PBS and then lysed in 4° C. lysis buffer (50 mM HEPES, 150 mM NaCl, 1.5 mM MgCl2, 1 mM EGTA, 100 mM NaF, 10 mM Na2PO4, 1 mM Na3VO4, 10% glycerol, 1% TRITON™ X-100, and 1 μg/mL each of aprotinin, leupeptin, chymostatin, pepstatin) and clarified at 12,000 rpm at 4° C. for 15 minutes. The lysates were normalized for total protein concentration. Aliquots of the lysates were then mixed 1:1 in sample buffer (125 mM Tris-HCl (pH 6.8), 20% glycerol, 4% sodium dodecyl sulfate, 2% β-mercaptoethanol, 10 μg/mL bromophenol blue) and boiled for 3 minutes. The samples were loaded onto SDS-PAGE gels (7.5 or 10% acrylamide). […]\n(§3) For immunodetection, the blocked blots were probed with primary antibody for 2 hours at 4° C. on a rocker. […] Alkaline phosphatase was detected by a colorimetric reaction using a BCIP (5-bromo-4-chloro-3-indolyl phosphate)/NBT (nitroblue tetrazolium) kit (Zymed)."}, "TRAF-1 and TRAF-2": {"tested_on": "TRAF-1 and TRAF-2", "assay": "Immunoblot of anti-apoptotic proteins in HT-29 cells", "conditions": "20 μM for 8 hours", "experimental": "as §1, §2, §3"}, "HT-29 cells": {"tested_on": "HT-29 cells", "assay": "One-hour cell adhesion assay (crystal violet)", "conditions": "adherent HT-29 pretreated for three days with various concentrations, then one-hour adhesion assay", "from_the_text": "FIG. 3 is a group of graphs that show NF-κB inhibitors cause apoptosis of colon cancer cells. […] The data points represent the average percent of annexin V-positive, propidium iodide-negative cells (of the total cells counted) from triplicate experiments. The error bars represent the standard error of the means. […] The results shown are a graphic representation of individual flow cytometry results expressed as the percentage of cells that were annexin V-positive of those that excluded propidium iodide. […] An immunoblot of the lysates for cleaved PARP was performed. Each lane represents equal total protein concentrations. […] The cells were allowed to adhere to plastic dishes for 1 hour after which they were washed gently in PBS and stained with crystal violet. The crystal violet stained cells were solubilized in deoxycholate and the absorbance detected in a spectrophotometer at 590 nm. The adherent cells were expressed as a fraction of the controls. Each data point represents the average of triplicate experiments and the error bars the standard errors of the means.\nEven though BAY 11-7085 induced a loss of cell adhesion, it was important to show whether HT-29 cells were actually susceptible to anoikis."}}}
{"smiles": "CC(C)(C)c1ccc(S(=O)(=O)/C=C/C#N)cc1", "note": "[BAY 11-7085, (2E)-3-[4-(tertiarybutylphenyl)sulfonyl]-2-propenenitrile]", "values": [{"measurement": "BAY 11-7085-induced apoptosis during readhesion", "setting": "[1]; HT-29 transiently suspended, treated and allowed to readhere, 8 hours", "result": "showed the same propensity for BAY 11-7085-induced apoptosis"}, {"measurement": "apoptosis of transiently suspended HT-29 cells", "setting": "[1]; all concentrations tested (10-100 μM), cells suspended in trypsin-PBS then replated", "result": "caused a significant increase in apoptosis"}, {"measurement": "c-IAP-1 protein expression", "setting": "c-IAP-1", "result": "No decrease in c-IAP-1 protein expression"}, {"measurement": "TRAF-1 and TRAF-2 protein expression", "setting": "TRAF-1 and TRAF-2", "result": "decrease in the protein expression of both TRAF-1 and TRAF-2 proteins"}, {"measurement": "cell adhesion", "setting": "HT-29 cells", "result": "significant and rapid inhibition of cell adhesion at high concentrations"}]}
